Patent US12357711B2, “PSMA binding dual mode radiotracer and therapeutic” (Technische Universität München, priority 2019, dated 2025)

Tested on: SCID mice
Assay: Preclinical dosimetry from biodistribution in mice, extrapolated to 70-kg Standard Adult (OLINDA/EXM 1.0)
Format: in vivo
Conditions: […] bladder voiding interval
Procedure: 3-5 mice were injected per timepoint with a mean 25.6±3.6 MBq of 18F-rhPSMA-7 and 28.5±4.8 MBq of 18F-rhPSMA-7.3, respectively. Mice, severe combined immunodeficiency (SCID) were used for the experiments.
Mice were sacrificed at the following timepoints: • ^18F-rhPSMA-7: 10, 20, 40, 60, 120 and 180 minutes after administration. • ^18F-rhPSMA-7.3: 10, 60, 120, 180 and 300 minutes after administration.
Urine, blood, heart, lung, spleen, pancreas, liver, stomach (emptied), small intestine (emptied), large intestine (emptied), kidneys, bladder, testis, fat, muscle (partial, femoral), femur, tail and brain. Urine was collected with a pipette in the CO2 gas chamber. In case of missing urination in the chamber the bladder was aspirated with an insulin syringe. Blood was withdrawn instantly after sacrifice with an insulin syringe from the heart. All other tissues and organs were dissected and transferred directly in plastic containers.
The counting rates of measurement samples were automatically corrected for decay. The radioactivity distribution ratios (unit: percentage of the injected dose (% ID) in the measurement samples were determined using the equation below. The sum of the counting rates from all measurement samples obtained from one mouse was designated as the counting rate for administrated radioactivity.
The radioactivity distribution ratio per unit weight of the measurement sample (unit: % ID/g) excluding urine and feces samples was determined by using the equation below. The weight of the measurement sample was determined by subtraction of the empty measurement container from the container including the sample.
For consistency of statistical calculations for each radiotracer the same number of time-points for ^18F-rhPSMA-7 and ^18F-rhPSMA-7.3 was used. Therefore, for ^18F-rhPSMA-7 the 10 min and 20 min time points were combined creating a 15 min endpoint.
The time-integral of activity for the accumulation in the significant source organs (AUCs) were generated both with numerical integration and physical decay according to J Juan et al., Journal of Pharmaceutical Sciences, 1993, 82:762-763.
In brief, to calculate a human dosimetry from the biodistribution in the mice, an extrapolation was necessary to account for the differences between the animals and humans. Normal-organ radiation doses were estimated for the 70-kg Standard Adult anatomic model using time-depending organ activity concentrations (in percent of the injected dose per gram, % ID/g) and total-body activities measured in the biodistribution studies in mice.
Tissue activity concentrations in mice were converted to tissue fractional activities in the 70-kg Standard Adult using the relative fractional organ masses in the Standard Adult and the “standard” 25-gramm mouse. Time-dependent total-body activity was fit to an exponential function and the difference between the injected activity and the total-body activity was assumed to be excreted to the urine because activity concentrations in the liver and GI tracer were low at all time points studied.
Organ residence time was calculated by numerical integration using the trapezoidal rule and the rest-of-body ^18F residence times was calculated as the difference between the total-body residence time and the sum of the organ and urine residence times. The bladder contents residence time was estimated using the dynamic voiding model in the OLINDA/EXM 1.0 dosimetry software. Finally, the Standard Adult mean organ dose equivalents (in mSv/MBq) and effective dose (also in mSv/MBq) were then calculated using OLIN DA/EXM 1.0.
Final calculation of radiation absorbed dose and dosimetry from biodistribution in mice: The tissues or organs in which a significant accumulation of radioactivity occurs (i.e., source organ) were kidney, spleen, lung, liver and heart. With respect to activity accumulation and clearance, a rapid clearance from blood and clearance to urine but relatively slow build-up in kidney was found.

Question: With `CC(C)(C)[Si](F)(c1ccc(C(=O)NC[C@@H](NC(=O)CC[C@@H](C(=O)O)N2CCN(CC(=O)[O-])CCN(CC(=O)[O-])CCN(CC(=O)[O-])CC2)C(=O)N[C@H](CCCCNC(=O)CCC(=O)NCCC[C@@H](NC(=O)CC[C@H](NC(=O)N[C@@H](CCC(=O)O)C(=O)O)C(=O)O)C(=O)O)C(=O)O)cc1)C(C)(C)C.[Ga+3]` [rhPSMA7.3, [^19F][^natGa]D-Dap-S-DOTAGA-rhPSMA7] as the compound, how does the “Adrenals ED Cont.” value read?
Answer: 5.52E−05 mSv/MBq

Question: What about the “Adrenals EDE Cont.” value of the same compound?
Answer: 0.00E000 mSv/MBq

Question: What about the “Adrenals dose Alpha” value of the same compound?
Answer: 0.00E000 mSv/MBq

Question: What about the “Adrenals dose Beta” value of the same compound?
Answer: 3.12E−03 mSv/MBq

Question: What about the “Adrenals dose Photon” value of the same compound?
Answer: 7.93E−03 mSv/MBq

Question: What about the “Adrenals dose Total” value of the same compound?
Answer: 1.10E−02 mSv/MBq

Question: And the “Brain ED Cont.” value?
Answer: 3.59E−05 mSv/MBq

Question: What about the “Brain EDE Cont.” value of the same compound?
Answer: 0.00E000 mSv/MBq

Question: And the “Brain dose Alpha” value?
Answer: 0.00E000 mSv/MBq

Question: And the “Brain dose Beta” value?
Answer: 3.12E−03 mSv/MBq

Question: And the “Brain dose Photon” value?
Answer: 4.07E−03 mSv/MBq

Question: And the “Brain dose Total” value?
Answer: 7.19E−03 mSv/MBq

Question: What about the “Breasts ED Cont.” value of the same compound?
Answer: 3.34E−04 mSv/MBq

Question: What about the “Breasts EDE Cont.” value of the same compound?
Answer: 1.00E−03 mSv/MBq

Question: What about the “Breasts dose Alpha” value of the same compound?
Answer: 0.00E000 mSv/MBq

Question: And the “Breasts dose Beta” value?
Answer: 3.12E−03 mSv/MBq

Question: What about the “Breasts dose Photon” value of the same compound?
Answer: 3.55E−03 mSv/MBq

Question: And the “Breasts dose Total” value?
Answer: 6.67E−03 mSv/MBq

Question: And the “Gallbladder Wall ED Cont.” value?
Answer: 0.00E000 mSv/MBq

Question: What about the “Gallbladder Wall EDE Cont.” value of the same compound?
Answer: 0.00E000 mSv/MBq

Question: What about the “Gallbladder Wall dose Alpha” value of the same compound?
Answer: 0.00E000 mSv/MBq

Question: And the “Gallbladder Wall dose Beta” value?
Answer: 3.12E−03 mSv/MBq

Question: And the “Gallbladder Wall dose Photon” value?
Answer: 7.46E−03 mSv/MBq

Question: And the “Gallbladder Wall dose Total” value?
Answer: 1.06E−02 mSv/MBq

Question: What about the “Heart Wall ED Cont.” value of the same compound?
Answer: 0.00E000 mSv/MBq

Question: What about the “Heart Wall EDE Cont.” value of the same compound?
Answer: 0.00E000 mSv/MBq

Question: And the “Heart Wall dose Alpha” value?
Answer: 0.00E000 mSv/MBq

Question: What about the “Heart Wall dose Beta” value of the same compound?
Answer: 1.32E−03 mSv/MBq

Question: And the “Heart Wall dose Photon” value?
Answer: 5.39E−03 mSv/MBq

Question: What about the “Heart Wall dose Total” value of the same compound?
Answer: 6.71E−03 mSv/MBq

Question: What about the “Kidneys ED Cont.” value of the same compound?
Answer: 3.59E−04 mSv/MBq

Question: What about the “Kidneys EDE Cont.” value of the same compound?
Answer: 4.31E−03 mSv/MBq

Question: And the “Kidneys dose Alpha” value?
Answer: 0.00E000 mSv/MBq

Question: What about the “Kidneys dose Beta” value of the same compound?
Answer: 5.11E−02 mSv/MBq

Question: And the “Kidneys dose Photon” value?
Answer: 2.07E−02 mSv/MBq

Question: What about the “Kidneys dose Total” value of the same compound?
Answer: 7.18E−02 mSv/MBq

Question: And the “LLI Wall ED Cont.” value?
Answer: 1.91E−03 mSv/MBq

Question: And the “LLI Wall EDE Cont.” value?
Answer: 9.53E−04 mSv/MBq

Question: What about the “LLI Wall dose Alpha” value of the same compound?
Answer: 0.00E000 mSv/MBq

Question: What about the “LLI Wall dose Beta” value of the same compound?
Answer: 3.12E−03 mSv/MBq

Question: What about the “LLI Wall dose Photon” value of the same compound?
Answer: 1.28E−02 mSv/MBq

Question: What about the “LLI Wall dose Total” value of the same compound?
Answer: 1.59E−02 mSv/MBq

Question: What about the “Liver ED Cont.” value of the same compound?
Answer: 3.00E−04 mSv/MBq

Question: And the “Liver EDE Cont.” value?
Answer: 0.00E000 mSv/MBq

Question: And the “Liver dose Alpha” value?
Answer: 0.00E000 mSv/MBq

Question: And the “Liver dose Beta” value?
Answer: 9.70E−04 mSv/MBq

Question: And the “Liver dose Photon” value?
Answer: 5.02E−03 mSv/MBq

Question: And the “Liver dose Total” value?
Answer: 5.99E−03 mSv/MBq

Question: And the “Lungs ED Cont.” value?
Answer: 7.93E−04 mSv/MBq

Question: What about the “Lungs EDE Cont.” value of the same compound?
Answer: 7.93E−04 mSv/MBq

Question: And the “Lungs dose Alpha” value?
Answer: 0.00E000 mSv/MBq

Question: And the “Lungs dose Beta” value?
Answer: 1.95E−03 mSv/MBq

Question: What about the “Lungs dose Photon” value of the same compound?
Answer: 4.66E−03 mSv/MBq

Question: And the “Lungs dose Total” value?
Answer: 6.61E−03 mSv/MBq

Question: And the “Muscle ED Cont.” value?
Answer: 4.83E−05 mSv/MBq

Question: What about the “Muscle EDE Cont.” value of the same compound?
Answer: 0.00E000 mSv/MBq

Question: And the “Muscle dose Alpha” value?
Answer: 0.00E000 mSv/MBq

Question: And the “Muscle dose Beta” value?
Answer: 3.12E−03 mSv/MBq

Question: And the “Muscle dose Photon” value?
Answer: 6.55E−03 mSv/MBq

Question: What about the “Muscle dose Total” value of the same compound?
Answer: 9.67E−03 mSv/MBq

Question: What about the “Osteogenic Cells ED Cont.” value of the same compound?
Answer: 1.32E−04 mSv/MBq

Question: And the “Osteogenic Cells EDE Cont.” value?
Answer: 3.97E−04 mSv/MBq

Question: And the “Osteogenic Cells dose Alpha” value?
Answer: 0.00E000 mSv/MBq

Question: And the “Osteogenic Cells dose Beta” value?
Answer: 6.70E−03 mSv/MBq

Question: And the “Osteogenic Cells dose Photon” value?
Answer: 6.52E−03 mSv/MBq

Question: And the “Osteogenic Cells dose Total” value?
Answer: 1.32E−02 mSv/MBq

Question: And the “Ovaries ED Cont.” value?
Answer: 3.14E−03 mSv/MBq

Question: And the “Ovaries EDE Cont.” value?
Answer: 3.92E−03 mSv/MBq

Question: What about the “Ovaries dose Alpha” value of the same compound?
Answer: 0.00E000 mSv/MBq

Question: And the “Ovaries dose Beta” value?
Answer: 3.12E−03 mSv/MBq

Question: What about the “Ovaries dose Photon” value of the same compound?
Answer: 1.26E−02 mSv/MBq

Question: And the “Ovaries dose Total” value?
Answer: 1.57E−02 mSv/MBq

Question: What about the “Pancreas ED Cont.” value of the same compound?
Answer: 5.70E−05 mSv/MBq

Question: And the “Pancreas EDE Cont.” value?
Answer: 0.00E000 mSv/MBq

Question: And the “Pancreas dose Alpha” value?
Answer: 0.00E000 mSv/MBq
